According to US10072029B2, “Crystalline form of a proteasome inhibitor” (Millennium Pharmaceuticals, Inc., priority 2015, dated 2018):

What was measured:
[1] = Chemical stability assessment, 60/75 stress test, HPLC; type: physicochemical
Description: The chemical stability assessment was performed on crystalline Pattern B using a 60/75 stress test (The International Conference on Harmonisation of Technical Requirements for Registration of Pharmaceuticals for Human Use, Stability Testing of New Drug Substances and Products, Q1A(R2), 2003). Samples were exposed to 60° C./75% relative humidity condition for 2 weeks and post-stress materials were analyzed by HPLC. Data at time-zero was also collected for all samples and served as references. The following table summarizes stability data obtained (peak area % measured by HPLC) for crystalline Pattern B.

receptors = conditions: panel of receptors; cited from earlier work
kinases = conditions: panel of kinases; cited from earlier work
[2] = molecular target: β1 site of the 20S proteasome (Homo sapiens, UniProt P28072); conditions: at higher concentrations; cited from earlier work
[3] = molecular target: β2 site of the 20S proteasome (Homo sapiens, UniProt Q99436); conditions: at higher concentrations; cited from earlier work

| Compound | % at 1 wk (peak area % measured by HPLC) ([1]; 60° C./75% relative humidity, 1 wk) [%] | % at 2 wk (peak area % measured by HPLC) ([1]; 60° C./75% relative humidity, 2 wk) [%] | % at t0 (peak area % measured by HPLC) ([1]; time-zero reference) [%] | IC50 (receptors) [µM] | IC50 (kinases) [µM] | inhibition of the activity of the β1 site [2] | inhibition of the activity of the β2 site [3] |
| --- | --- | --- | --- | --- | --- | --- | --- |
| CC(C)C[C@H](NC(=O)CNC(=O)c1cc(Cl)ccc1Cl)B1OB([C@H](CC(C)C)NC(=O)CNC(=O)c2cc(Cl)ccc2Cl)OB([C@H](CC(C)C)NC(=O)CNC(=O)c2cc(Cl)ccc2Cl)O1 [Crystalline Pattern B, N,N′,N″-[2,4,6-boroxintriyltris[[(1R)-3-methylbutylidene]imino(2-oxo-2,1-ethanediyl)]]tris(2,5-dichlorobenzamide)] | 94.2 | 79.5 | 99.3 |  |  |  |  |
| CC(C)C[C@H](NC(=O)CNC(=O)c1cc(Cl)ccc1Cl)B(O)O [Ixazomib, [(1R)-1-({[(2,5-dichlorobenzoyl)amino]acetyl}amino)-3-methylbutyl]boronic acid] |  |  |  | > 10 | > 10 | inhibits the activity | inhibits the activity |
